Assay results taken from ChEMBL document CHEMBL1201862, “PubChem BioAssay data set” (2004).
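Dose response: 5 concentrations. Exposure: 48 h. Format: 96-well plates. Endpoint: linear interpolation; highest concentration if not reached. GI50 = concentration required for 50% inhibition of growth.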 Active and inactive are the calls of the source. No stated cut-off is given here; in the data, active = GI50 up to about 1.1 µM and inactive = higher.

What was measured:
Assay in all cases: growth of human tumour cells (NCI), 48 h
OVCAR-8 = system: OVCAR-8
NCI-H23 = system: NCI-H23
MOLT-4 = system: MOLT-4
UACC-62 = system: UACC-62
HT-29 = system: HT-29
RPMI-8226 = system: RPMI-8226
BT-549 = system: BT-549
DU-145 = system: DU-145
CCRF-CEM = system: CCRF-CEM
TK-10 = system: TK-10
NCI-H226 = system: NCI-H226
U-251 = system: U-251
OVCAR-3 = system: OVCAR-3
MDA-N = system: MDA-N
EKVX = system: EKVX
NCI/ADR-RES = system: NCI/ADR-RES
MDA-MB-435 = system: MDA-MB-435
SF-539 = system: SF-539
T47D = system: T47D
HCT-116 = system: HCT-116

SMILES | GI50 (OVCAR-8) | GI50 (NCI-H23) | GI50 (MOLT-4) | GI50 (UACC-62) | GI50 (HT-29) | GI50 (RPMI-8226) | GI50 (BT-549) | GI50 (DU-145) | GI50 (CCRF-CEM) | GI50 (TK-10) | GI50 (NCI-H226) | GI50 (U-251) | GI50 (OVCAR-3) | GI50 (MDA-N) | GI50 (EKVX) | GI50 (NCI/ADR-RES) | GI50 (MDA-MB-435) | GI50 (SF-539) | GI50 (T47D) | GI50 (HCT-116)
Nc1ccc(-c2nc3ccc(F)cc3s2)cc1Cl | > 65.5 µM (inactive) | > 82 µM (inactive) | > 20.4 µM (inactive) | > 69.8 µM (inactive) | 52.7 µM (inactive) | > 100 µM (inactive) | > 70.6 µM (inactive) | > 100 µM (inactive) | 5.57 µM (inactive) | < 0.01 µM (active) | 14.1 µM (inactive) | > 65.5 µM (inactive) | 0.126 µM (active) | > 100 µM (inactive) | > 61.9 µM (inactive) | > 100 µM (inactive) | > 100 µM (inactive) | 53.5 µM (inactive) |  | 
O=C1OCC2=C1C(c1ccc3c(c1)OCO3)c1cc3c(cc1O2)OCO3 (stereo not drawn) | 1.11 µM (active) | 1.29 µM (inactive) | 0.374 µM (active) | 0.364 µM (active) | 0.346 µM (active) | 0.378 µM (active) |  | 1.64 µM (inactive) | 0.667 µM (active) | 5.81 µM (inactive) | 5.14 µM (inactive) | 0.583 µM (active) | 2.72 µM (inactive) | 0.0782 µM (active) | 1.72 µM (inactive) | 0.255 µM (active) | 0.0708 µM (active) | 0.522 µM (active) | 0.7 µM (active) | 0.436 µM (active)
COC(=O)CSc1cc(Cl)c(C)cc1S(=O)(=O)Nc1n[nH]c(N)n1 | > 10 µM (inactive) | > 10 µM (inactive) | > 10 µM (inactive) |  | > 10 µM (inactive) | > 10 µM (inactive) | > 10 µM (inactive) | > 10 µM (inactive) | > 10 µM (inactive) | > 10 µM (inactive) | > 10 µM (inactive) | > 10 µM (inactive) | > 10 µM (inactive) | > 10 µM (inactive) | > 10 µM (inactive) | > 10 µM (inactive) |  | > 10 µM (inactive) | > 10 µM (inactive) | > 10 µM (inactive)
C/C(=C/CNc1ncnc2c1ncn2CCC(=O)O)CO | > 100 µM (inactive) | > 100 µM (inactive) | > 100 µM (inactive) | > 100 µM (inactive) | > 100 µM (inactive) | > 100 µM (inactive) |  | > 100 µM (inactive) | > 100 µM (inactive) | > 100 µM (inactive) | > 100 µM (inactive) |  | > 100 µM (inactive) | > 100 µM (inactive) | > 100 µM (inactive) | > 100 µM (inactive) | > 100 µM (inactive) | > 100 µM (inactive) | > 100 µM (inactive) | > 100 µM (inactive)
O=C(c1ccc(Cl)cc1)c1ccc(OCC(=O)N2CCN(c3ccccc3)CC2)cc1 | > 100 µM (inactive) | 53.7 µM (inactive) | 62.7 µM (inactive) | > 100 µM (inactive) | > 100 µM (inactive) | > 100 µM (inactive) |  |  | > 100 µM (inactive) | > 100 µM (inactive) | > 100 µM (inactive) | > 100 µM (inactive) | > 100 µM (inactive) |  | > 100 µM (inactive) |  |  | > 100 µM (inactive) |  | > 100 µM (inactive)
CC1=C(C(=O)Nc2ccccc2)C(c2ccc([N+](=O)[O-])cc2)C(C(=O)Nc2ccccc2)=C(C)N1 | 17.3 µM (inactive) | 17 µM (inactive) | 7.05 µM (inactive) | 12.2 µM (inactive) | 18.2 µM (inactive) | 15.2 µM (inactive) |  |  | 10.3 µM (inactive) | 28.7 µM (inactive) | 59.6 µM (inactive) | 17.4 µM (inactive) | 21.7 µM (inactive) |  | 21.5 µM (inactive) |  |  | 20.7 µM (inactive) |  | 18.5 µM (inactive)
COc1ccc(-c2c(N)n(-c3nc4ccccc4s3)c(=O)c3cc([N+](=O)[O-])ccc23)cc1 | 11.2 µM (inactive) | 13.8 µM (inactive) | 3.18 µM (inactive) | > 100 µM (inactive) | 49 µM (inactive) | 1.81 µM (inactive) | 89.9 µM (inactive) |  | 4.44 µM (inactive) | 38.1 µM (inactive) | 37.3 µM (inactive) | 7.6 µM (inactive) | 17 µM (inactive) | 70.5 µM (inactive) | 14 µM (inactive) | 17 µM (inactive) | 19 µM (inactive) | 5.83 µM (inactive) |  | 20.1 µM (inactive)
C#CC(C)(C)OC(=O)C(=[N+]=[N-])C(C)=O | > 10 µM (inactive) | > 10 µM (inactive) | > 10 µM (inactive) | > 10 µM (inactive) | > 10 µM (inactive) | > 10 µM (inactive) | > 10 µM (inactive) | > 10 µM (inactive) | > 10 µM (inactive) | > 10 µM (inactive) | > 10 µM (inactive) | > 10 µM (inactive) | > 10 µM (inactive) | > 10 µM (inactive) | > 10 µM (inactive) |  | > 10 µM (inactive) | > 10 µM (inactive) | > 10 µM (inactive) | > 10 µM (inactive)
